From US5234903A, “Chemically modified hemoglobin as an effective, stable non-immunogenic red blood cell substitute” (Enzon, Inc., priority 1990, dated 1993) come the findings set out here.

Data set [1] in a line: Oxygen binding: P50 (partial pressure of oxygen at 50% saturation) and Hill coefficient. On the procedure: Hemoglobin constitutes about 90% of the total protein in red blood cells. 100 ml of whole blood is capable of absorbing approximately 21 ml of gaseous oxygen due to the binding ability of hemoglobin. Equally important to the binding of oxygen, hemoglobin is also efficient in releasing the bound oxygen to tissues. The ability of hemoglobin to bind and release oxygen is often quantitatively expressed as the P50, the partial pressure of oxygen which results in fifty percent saturation of hemoglobin.
The resulting modified hemoglobin may then be tested to determine its P50 value so as to confirm that a clinically useful P50 has been achieved. Methods of P50 measurement include standard methods of analysis, such as, for example, methods utilizing the Hemox-Analyzer (TCS Medical Products Co., Huntingdon Valley, Pa.).
Following reduction, the hemoglobin may be reacted with an activated polyalkylene oxide under conditions which maintain the structural integrity of the oxygen binding site. In preferred embodiments of the invention, such conditions consist of a high anion concentration; in a specific embodiment this anion is chloride ion. In preferred embodiments, the chloride ion concentration is at least about 1.0M. […] According to the invention, the activated polyalkylene oxide may have one or more than one functional groups. The degree of modification for each preparation referred to in Table I is approximately 20 percent. This percent modification corresponds to about […] PEG molecules per each molecule of hemoglobin. The percent modification may be calculated according to the number of lysines modified by PEG and is based on a total of 48 surface lysines in bovine hemoglobin. The number may be determined by trinitrobenzene sulfonic acid (TNBS) assay (Habeef et al., 1966, Analyt. Biochem. 14:328-336).
(§1) The polyalkylene oxide modified hemoglobin may then be chemically characterized using methods known in the art. For example, the oxygen dissociation curve may be determined using standard techniques (for example, Imai et al., 1970, Biochim. Biophys. Acta 200: 189-196) allowing calculation of the P50 value. Additional parameters which would be desirable to measure include the methemoglobin content, the viscosity, the osmolality, the pH, and the Hill constant; the effects of changes in pH on the oxygen saturation curve may be determined as described in Bartels (1971, Blood oxygen dissociation curves: Mammals. in "Respiration and Circulation", Altman and Dittmer, Eds., Federation of American Societies for Experimental Biology, Bethesda).
Purification was carried out using a hollow-fiber ultrafiltration device with M.W. cutoff of 50 kD that is commercially available from American Fluid, Richboro, Pa. The advantage of this device relative to conventional tangential flat ultrafiltration membranes is its easy handling of viscous protein solutions such as the 6% PEG-Hb solution. Following purification, the P50 of the PEG-Hb was determined by a Hemox-Analyzer (TCS Medical Products Co., Huntington Valley, Pa.).

Data set [2] in a line: Viscosity and colloid osmotic pressure of PEG-Hb solutions. It is filed as physicochemical. The conditions noted are these: for colloid osmotic pressure: 6 percent (g/dl) product; for Viscosity: 6 percent (g/dl), 37° C.
Source text: as §1

In a further data set the test system is bovine hemoglobin. Description: Reducing agents in bovine hemoglobin solution (deoxy Hb, Met Hb, free iron). The format is biochemical. The conditions noted are these: for Met Hb / deoxy Hb / Free Iron: 30 mM agent, 5% bovine hemoglobin, pH 7.4, 4° C., inert atmosphere, 20 hours. On the procedure: 30 mM of each reducing agent tested, including cysteine, glutathione, N-acetyl cysteine, N-acetyl methionine and sodium ascorbate, was added to 5% bovine hemoglobin solution containing 0.lM Na phosphate, 0.1M NaHCO3 and 0.1M NaCl, with pH=7.4 and at 4° C., under an inert atmosphere. 20 hours later, the deoxyhemoglobin (deoxy Hb), Met Hb and free iron concentrations were determined. Met Hb and deoxy Hb concentrations were measured using an OSM3 Hemoximeter (Radiometer) and free iron was determined by the ferrozine assay method (Carter, 1971, Analyt. Biochem. 40:450-458).

The mark [3] stands for this setting: 0% deoxyHb before PEGylation, BSC-PEG.
Where [4] appears, read: 25% deoxyHb before PEGylation, BSC-PEG.
Where [5] appears, read: 45% deoxyHb before PEGylation, BSC-PEG.
The mark [6] stands for this setting: 61% deoxyHb before PEGylation, BSC-PEG.
The mark [7] stands for this setting: 76% deoxyHb before PEGylation, BSC-PEG.
Setting [8] is: 93% deoxyHb before PEGylation, BSC-PEG.
Setting [9] is: degree of modification 3%, 0.15M [Cl-].
Setting [10] is: degree of modification 6%, 0.15M [Cl-].
[11] abbreviates: native, unmodified (footnote of Table VII).
Setting [12] is: 0% deoxyHb before PEGylation, SC-PEG.
[13] abbreviates: 20% deoxyHb before PEGylation, SC-PEG.
Setting [14] is: 35% deoxyHb before PEGylation, SC-PEG.
Setting [15] is: 50% deoxyHb before PEGylation, SC-PEG.
The mark [16] stands for this setting: 70% deoxyHb before PEGylation, SC-PEG.
Where [17] appears, read: 90% deoxyHb before PEGylation, SC-PEG.
[18] abbreviates: 95% deoxyHb before PEGylation, SC-PEG.
[19] abbreviates: 30 mM sodium bisulfite, 59% deoxyHb before PEGylation.
The mark [20] stands for this setting: 50 mM sodium bisulfite, 63% deoxyHb before PEGylation.
Setting [21] is: 100 mM sodium bisulfite, 75% deoxyHb before PEGylation.
The mark [22] stands for this setting: 175 mM sodium bisulfite, 95-100% deoxyHb before PEGylation.
[23] abbreviates: [Cl-] of reaction solution 0.1 M, degree of modification approximately 20 percent.
[24] abbreviates: [Cl-] of reaction solution 0.5 M, degree of modification approximately 20 percent.
Setting [25] is: [Cl-] of reaction solution 1.0 M, degree of modification approximately 20 percent.
The mark [26] stands for this setting: [Cl-] of reaction solution 1.5 M, degree of modification approximately 20 percent.
Setting [27] is: [Cl-] of reaction solution 2.0 M, degree of modification approximately 20 percent.

For “Example X: bovine hemoglobin deoxygenated by gas exchange, modified with BSC-PEG (M.W. 5000), BSC-PEG:Hb 2.5:1, crosslinked”, the Hill coeff. in data set [1] (setting [3]) is listed as 1.8; in data set [1] (setting [4]), 1.9; in data set [1] (setting [5]) it was 2.0; in data set [1] (setting [6]) it was 2.3; in data set [1] (setting [7]), 2.3; in data set [1] (setting [8]), 2.0. Further, the P50 in data set [1] (setting [3]) is 20 mmHg; in data set [1] (setting [4]) it was 22 mmHg; in data set [1] (setting [5]), 25 mmHg; in data set [1] (setting [6]), 30 mmHg; in data set [1] (setting [7]), 31 mmHg; in data set [1] (setting [8]), 26 mmHg. Besides, the colloid osmotic pressure in data set [2] came to 20 mmHg. For the same molecule, the Viscosity in data set [2] is 4.5 cp.
In the case of “BSC-PEG(4600)-bHb: bovine hemoglobin modified with bifunctional BSC-PEG of molecular weight 4600”, the P50 in data set [1] (setting [9]) is on record as 34 mm Hg; in data set [1] (degree of modification 4.5%, 0.15M [Cl-]), 34 mm Hg; in data set [1] (setting [10]) it was 32.5 mm Hg.
As for `N[C@@H](CCC(=O)N[C@@H](CS)C(=O)NCC(=O)O)C(=O)O` [GSH, reduced glutathione], in the data set with bovine hemoglobin, the “Met Hb” value is given as 11.9% and the “deoxy Hb” value is given as 9.7%.
As to `O=C1O[C@H]([C@@H](O)CO)C([O-])=C1O.[Na+]` [Na-Ascorbate, sodium ascorbate], in the data set with bovine hemoglobin, the Free Iron stood at 233.7 µg/dL, the “Met Hb” value was 4.1% and the “deoxy Hb” value was 96.7%.
Turning to “BSC-PEG(6000)-bHb: bovine hemoglobin modified with bifunctional BSC-PEG of molecular weight 6000”, the P50 was 38.5 mm Hg in data set [1] (setting [9]); 36.5 mm Hg in data set [1] (setting [10]); 36.5 mm Hg in data set [1] (degree of modification 7.3%, 0.15M [Cl-]).
In the case of “native stromafree bHb: native stromafree bHb from Biopure, Boston, MA [reference compound]”, in data set [1] (setting [11]), the “Hill Coefficient” value turned out to be 2.3 and the P50 came to 28 mmHg.
Consider `CSCC[C@H](NC(C)=O)C(=O)O` [N-acetyl methionine], for which, in the data set with bovine hemoglobin, the “Met Hb” value came to 19.6% and the “deoxy Hb” value amounted to 0%.
For the molecule “Bifunctional PEG-modified bHb: bovine hemoglobin reacted with BSC-PEG”, the “P50 vs monofunctional PEG-modified bHb” value in data set [1] (in words) was “higher P50 than monofunctional PEG-modified bHb”.
Turning to “Example VIII: bovine hemoglobin partially deoxygenated by gas exchange, modified with SC-PEG (M.W. 5141), SC-PEG:Hb 12:1”, the Hill coeff. in data set [1] (setting [12]) is on record as 1.7; in data set [1] (setting [13]), 1.7; in data set [1] (setting [14]), 1.7; in data set [1] (setting [15]) it was 2.0; in data set [1] (setting [16]), 2.2; in data set [1] (setting [17]), 2.0. Besides, in data set [1] (setting [18]), the Hill coeff. was 2.0. Further, the P50 in data set [1] (setting [12]) is 18 mmHg; in data set [1] (setting [13]), 18 mmHg; in data set [1] (setting [14]) it was 18 mmHg; in data set [1] (setting [15]) it was 24 mmHg; in data set [1] (setting [16]) it was 28 mmHg; in data set [1] (setting [17]) it was 22 mmHg. For the same molecule, the P50 in data set [1] (setting [18]) is 22 mmHg. In data set [2], this molecule came in with a colloid osmotic pressure of 24 mmHg. In addition, the Viscosity in data set [2] came out at 4.2 cp.
Take “Example IX: bovine hemoglobin deoxygenated with sodium bisulfite, then modified using monofunctionally activated SC-PEG”: the “Hill Coefficient” value in data set [1] (setting [19]) is 1.8; in data set [1] (setting [20]), 1.8; in data set [1] (setting [21]), 2.2; in data set [1] (setting [22]), 2.0. For the same molecule, the “P50 of PEG-Hb” value in data set [1] (setting [19]) is 18.5 mmHg; in data set [1] (setting [20]), 19.0 mmHg; in data set [1] (setting [21]), 28.0 mmHg; in data set [1] (setting [22]) it was 24.0 mmHg.
Regarding “SC-PEG(4000)-bHb: bovine hemoglobin modified with monofunctional SC-PEG of molecular weight 4000”, the P50 in data set [1] (setting [23]) was determined as 24 mm Hg; in data set [1] (setting [24]), 28 mm Hg; in data set [1] (setting [25]) it was 30 mm Hg; in data set [1] (setting [26]), 30 mm Hg; in data set [1] (setting [27]), 30 mm Hg.
As for “SC-PEG(2000)-bHb: bovine hemoglobin modified with monofunctional SC-PEG of molecular weight 2000”, the P50 in data set [1] (setting [23]) is 24 mm Hg; in data set [1] (setting [24]), 30 mm Hg; in data set [1] (setting [25]) it was 32 mm Hg; in data set [1] (setting [26]) it was 31 mm Hg; in data set [1] (setting [27]), 32 mm Hg.
As to `CC(=O)N[C@@H](CS)C(=O)O` [N-acetyl cysteine], in the data set with bovine hemoglobin, the “Met Hb” value stood at 18.8% and the “deoxy Hb” value is given as 0%.
For “SC-PEG(5000)-bHb: bovine hemoglobin modified with monofunctional SC-PEG of molecular weight 5000”, the P50 in data set [1] (setting [23]) is on record as 22 mm Hg; in data set [1] (setting [24]), 24 mm Hg; in data set [1] (setting [25]) it was 29 mm Hg; in data set [1] (setting [26]) it was 30 mm Hg; in data set [1] (setting [27]), 30 mm Hg; in data set [1] (reacted in 0.1M [Cl-], degree of modification 5%), 24 mm Hg. In addition, the P50 in data set [1] (reacted in 0.1M [Cl-], degree of modification 10%) was found to be 22 mm Hg; in data set [1] (reacted in 0.1M [Cl-], degree of modification 20%) it was 22 mm Hg; in data set [1] (reacted in 0.5M [Cl-], degree of modification 5%), 28 mm Hg; in data set [1] (reacted in 0.5M [Cl-], degree of modification 10%), 24 mm Hg; in data set [1] (reacted in 0.5M [Cl-], degree of modification 20%) it was 24 mm Hg; in data set [1] (reacted in 1.0M [Cl-], degree of modification 5%), 30 mm Hg. Also, the P50 in data set [1] (reacted in 1.0M [Cl-], degree of modification 10%) is listed as 29 mm Hg; in data set [1] (reacted in 1.0M [Cl-], degree of modification 20%), 29 mm Hg.
In the case of `N[C@@H](CS)C(=O)O` [Cysteine, cysteine], in the data set on bovine hemoglobin, the Free Iron was 4.26 µg/dL, the “Met Hb” value is given as 0.8% and the “deoxy Hb” value stood at 97.6%. In addition, in the data set on bovine hemoglobin (in words), the “deoxyhemoglobin level, ranking among agents” value is reported as “highest levels of deoxyhemoglobin”; the “methemoglobin and free iron level, ranking among agents” value was “lowest levels of methemoglobin and free iron”.
